Measurements published in patent US6787141B1, “Peptide having for fibrinogen fragment E activity, analogs, antibodies and uses thereof” (The University Court of The University of Aberdeen, priority 1999, dated 2004).

How the values were obtained:
[1] = system: chick chorioallantoic membrane (CAM); assay: chick chorioallantoic membrane (CAM) cell proliferation assay (DNA synthesis, tritiated thymidine); assay type: in vivo
Procedure: Cell proliferation was measured using the chick chorioallantoic membrane (CAM) model as described previously (4, 29, 30).The assay used is based on quantitative measurement of DNA synthesis in the CAM after exposure to control and test substances 18 h after application in liquid form to the whole “dropped” area of each CAM (4, 29). This assay is a measure of changes in CAM vascularity (30).
The rabbit and rat antisera were mixed with active fibrin degradation products. These were applied to the chick CAM with a positive control (fibrin degradation products) and a negative control (the antibody alone). The CAM was processed for incorporation of tritiated thymidine.
The rabbit antisera were then tested for ability to block the stimulatory activity of human FDP on the chick CAM model. The assay used was based on quantitative measurement of DNA synthesis in the CAM after exposure to control and test substances 18 h after application in liquid form to the whole “dropped” area of each CAM (4,29). This assay is a measure of changes in CAM vascularity (30). Anti phage antisera, raised by relatively short term immunisation of rabbits, were used at a 1/2 dilution and admixed with FDP used at a concentration of approximately 1.95 mg/ml diluted before use to 1/10. Controls included buffer only and antiserum only groups of CAMs. After filter sterilisation, 0.3 ml was added onto each CAM dropped surface.

Chick fibroblasts = assay: cell immunohistochemistry; assay type: cell-based; details: 2 hours exposure
Procedure: Chick fibroblasts were cultured in a 25 cm^2 flask (Nunc) until confluent (approximately 3×10^6 cells). The cells were washed in PBS and then trypsinised and diluted to 3×10^5 cells per ml in Dulbecco modified medium with 10% foetal calf serum. […] of the cells suspension was plated into each well of a Nunc culture well slide. The cells were incubated overnight to allow adhesion and recovery from the passaging. Digoxygenin labelled fibrin fragment E was added to a final concentration of 8 mg per ml. Control wells contained unconjugated digoxygenin and PBS.
The cells were rinsed after 2 hours with PBS then washed 3 times in TBS followed by one wash in distilled water. The cells were then incubated for 2 hours with sheep anti-digoxygenin alkaline phosphatase. The slides were then washed three times in TBS and developed with NBT and BCIP in bicarbonate buffer pH 9.8. The slides were air dried and then mounted for observation of membrane staining under the microscope.

[2] = system: Chick fibroblasts, Cos7, mouse 3T3 and human embryonic lung cells (HEL); assay: cell binding assays; assay type: cell-based; details: each of the cell types; 6 hours at 37° C.
Procedure: Chick fibroblasts, Cos7, mouse 3T3 and human embryonic lung cells (HEL) were cultured in a 25 cm^2 flask (Nunc) until confluent (approximately 3×10^6 cells). The cells were trypsinised and resuspended at concentration of 1.3×10^5 cells/ml. 200 μl of this cell suspension was added to each well of a 96 well culture plate (Nunc). The cells were incubated overnight at 37° C. to allow adherence and recovery. The cells were then divided into three sections, digoxygenin controls, PBS controls and digoxygenin labelled fragment E tests. Increasing concentrations of digoxygenin and digoxygenin labelled fibrin fragment E were applied from 0-30 mg per well. The plates were incubated for 6 hours at 37° C. under culture conditions.
The plates were emptied of media and washed three times with PBS. The cells were then incubated for 2 hours with sheep antidigoxygenin alkaline phosphatase and developed with p-nitrophenyl phosphate in bicarbonate buffer pH 9.8. The plates were read on a Titertek Multiscan plate reader at 405 nm.

Molecule	inhibition of the stimulatory effect of FDP ([1]; FIG. 4 legend, concentration not given)	inhibition of FDP induced cell proliferation ([1]; peptide at 7.5 μg/ml)	inhibition of FDP induced cell proliferation ([1]; peptide at 15 μg/ml)	binding to cells (membrane staining) (Chick fibroblasts)	binding to cells (absorbance at 405 nm compared to control preparations) [2]
CRAHSFGSPRPLPVV [WTM110]	inhibits	little inhibition	inhibition was demonstrated with cell proliferation reduced to control level		
fibrin fragment E: fibrin fragment E, labelled with digoxygenin ester for detection (protein) chain 1: GPRVVERHQSACKDSDWPFCSDEDWNYKCPSGCRMKGLIDEVNQDFTNRINKLKNSLFEYQK chain 2: GHRPLDKKREEAPSLRPAPPPISGGGYRARPAKAAATQKKVERKAPDAGGCLHADPDLGVLCPTGCQLQEALLQQERPIRNSVDELNNNVEAVSQTSSSSFQYMYLLK chain 3: YVATRDNCCILDERFGSYCPTTCGIADFLSTYQTKVDKDLQSLEDILHQVENKTSEVKQLIK				shown to bind	high absorbance
